From US6884423B1, “Antimicrobial histone H1 compositions, kits, and methods of use thereof” (Symbiotec GmbH, priority 1998, dated 2005)

Legend:
E. coli strain AB1157 [1] = experiment: Fractional survival of histone H1-contacted cells by colony counting
Protocol: Purified bovine histone H1 was prepared as described herein in Example 1. Cells of E. coli strain AB1157 (obtained from ATCC) were grown in NYET medium (4 grams per liter nutrient broth, 7.5 grams per liter yeast extract, and 4 grams per lither tryptone) at 37° C. E. coli cells in approximately the exponential growth phase were incubated in Sorensen buffer (41 mM Na2HPO4, 25.7 mM KH2PO4) for twenty minutes in the presence of a selected concentration of histone H1. The fractional survival of histone H1-contacted cells, relative to cells which were not contacted with histone H1 was determined by counting colonies using an automated colony counter (3M model 620). About 200 microliters of an H1-containing bacterial suspension was plated into Petri dishes by adding 10 milliliters of 57° C. medium containing 1.5% (w/w) Bacto agar. […]
Purified bovine histone H1 was prepared as described herein in Example 1. Cells of E. coli strain AB1157 were incubated in Sorensen buffer at a selected temperature for a selected period in the presence of a 1.9 micromolar histone H1 The fractional survival of histone H1-contacted cells, relative to cells not contacted with histone H1 was determined as described herein in Example 4. […] Normal human body temperature is about 37° C. […]
Purified bovine histone H1 was prepared as described herein in Example 1. Cells of E. coli strain AB1157 were incubated in Sorensen buffer at a selected temperature for a selected period in the presence of a selected concentration histone H1. In selected assays, the medium also contained between 0 and about 10% (v/v) human or bovine serum. The fractional survival of histone H1-contacted cells, relative to cells not contacted with histone H1 was determined as described herein in Example 4. […]

E. coli strain AB1157 [2] = experiment: Inhibition of the antibiotic activity of histone H1 by heparin; format: cell-based, Escherichia coli; details: 4 micrograms per milliliter histone H1, 37° C., ten minutes
Protocol: In selected assays, the incubation medium also contained a selected concentration of heparin, in the range from 0 to about 250 units per milliliter.

Serratia marcescens = experiment: Percent reduction in colony formation (spectrum of antibiotic activity); format: cell-based; details: Incubation time 10 minutes; [Histone H1] 1.9 micromolar; 37° C.
Protocol: (§1) Histone H1 suspended in Sorensen buffer was added to aliquots of individual bacterial cultures to achieve a final concentration of either 1.9 micromolar or 3.8 micromolar. No histone H1 was added to individual control culture aliquots. The aliquots were thereafter incubated at 37° C. for either ten minutes or forty-five minutes, and the aliquots were plated on appropriate solid or semisolid media.

Enterococcus faecalis = experiment: as above; format: cell-based; details: 37° C.
Protocol: as §1

Pseudomonas aeruginosa = experiment: as above; format: cell-based; details: 37° C.
Protocol: as §1

Bacillus cereus = experiment: as above; format: cell-based; details: 37° C.
Protocol: as §1

Bacillus megaterium = experiment: as above; format: cell-based; details: 37° C.
Protocol: as §1

Salmonella enteritidis = experiment: as above; format: cell-based; details: Incubation time 10 minutes; [Histone H1] 1.9 micromolar; 37° C.
Protocol: as §1

Proteus mirabilis = experiment: as above; format: cell-based; details: Incubation time 10 minutes; [Histone H1] 1.9 micromolar; 37° C.
Protocol: as §1

Bacillus subtilis = experiment: as above; format: cell-based; details: Incubation time 10 minutes; [Histone H1] 1.9 micromolar; 37° C.
Protocol: as §1

Staphylococcus aureus = experiment: as above; format: cell-based; details: 37° C.
Protocol: as §1

[3] = system: Escherichia coli strain AB1157; experiment: as above; format: cell-based; details: 37° C.
Protocol: as §1

E. coli strain AB1157 [4] = experiment: Binding of histone H1 to bacteria (activity of medium pre-contacted with cells); format: cell-based, Escherichia coli; details: forty-five minutes pre-incubation with E. coli cells, decanted medium re-inoculated
Protocol: An aliquot of cells of E. coli strain AB1157 was incubated with histone H1 as described herein in Example 4. After forty-five minutes of incubation, cells were removed by centrifugation and decanting.

[5] = system: non-cancerous eukaryotic cells
E. coli strain AB1157 [6] = experiment: Membrane damage by Sytox Green dye and flow cytometer; format: cell-based, Escherichia coli; details: 0.4, 0.95 and 1.9 μM histone H1, 37° C., various time intervals
Protocol: Membrane damage of E. coli cells was determined at various time intervals, using the dye Sytox Green and a flow cytometer as described (Roth et al., 1997, Appl. Env. Microbiol. 63:2421-2431).

[7] = system: penicillin-resistant E. coli strain derived from strain AB1157; experiment: Bacteriocidal effect upon penicillin-resistant bacteria (fractional survival); format: cell-based, Escherichia coli; details: histone H1 in Sorensen buffer, 37° C.
Excerpt: Cells of E. coli strain AB1157 were made penicillin-resistant by culturing them in penicillin-containing growth media over a period of several days. The resulting population was completely resistant to penicillin.

animal cells = details: on the order of; cited from earlier work
[8] = system: various strains of E. coli isolated from urinary tract infections; experiment: Exposure time dependence of antibiotic activity, urinary tract infection isolates; format: cell-based, Escherichia coli; details: after thirty minutes; all strains
Protocol: Histone H1 suspended in Sorensen buffer was added to aliquots of individual bacterial cultures to achieve a final concentration of either 1.9 micromolar or 3.8 micromolar. No histone H1 was added to individual control culture aliquots. […]

E. coli strain AB1157 [9] = experiment: Thermal stability of histone H1 (antibiotic activity after storage); format: cell-based, Escherichia coli; details: for fractional survival of cells: 40 micrograms per milliliter, 37° C., ten minutes
Protocol: In a first experiment, purified histone H1 was stored at −80° C. for more than thirty-six months.
In a second experiment, aliquots of purified histone H1 were separately stored at −80° C., at 4° C., and at 37° C. for twenty hours. […] The fractional survival of cells incubated with histone H1 stored at −80° C. was about 0.1%. The fractional survival of cells incubated with histone H1 stored at 4° C. was about 1%. The fractional survival of cells incubated with histone H1 stored at 37° C. was about 6%.

E. coli strain AB1157 [10] = experiment: Development of bacterial resistance to histone H1; format: cell-based, Escherichia coli; details: FIG. 6
Protocol: Purified bovine histone H1 is prepared as described herein in Example 1. Cells of E. coli strain AB1157 are incubated in aliquots of Sorensen buffer containing various set concentrations of histone H1. The aliquot having the highest histone H1 concentration in which cells proliferate (as indicated, for example, by turbidity of the buffer) is used to seed cultures having even higher histone H1 concentrations. This process is repeated until cells are isolated which grow at a concentration of histone H1 that is normally toxic to E. coli cells.

bacterial cells = experiment: Toxic concentration for bacterial cells; format: cell-based
[11] = Incubation time 10 minutes, [Histone H1] 1.9 micromolar
[12] = Incubation time 10 minutes, [Histone H1] 3.8 micromolar
[13] = Incubation time 45 minutes, [Histone H1] 1.9 micromolar
[14] = Incubation time 45 minutes, [Histone H1] 3.8 micromolar

NC[C@H]1O[C@H](O[C@H]2[C@H](O)[C@@H](O[C@H]3O[C@H](CO)[C@@H](O)[C@H](N)[C@H]3O)[C@H](N)C[C@@H]2N)[C@H](O)[C@@H](O)[C@@H]1O [kanamycin, reference compound]
cytotoxicity (E. coli strain AB1157 [1]; 1.9 micromolar, 37° C., ten minutes, Sorensen buffer): no measurable cytotoxicity

heparin
heparin concentration at which histone H1 exhibited essentially no antibiotic activity (E. coli strain AB1157 [2]): greater than 150 units per milliliter | lowest heparin concentration that reduced the antibiotic activity of histone H1 (E. coli strain AB1157 [2]): 6.2 units per milliliter

histone H1
Percent Reduction in Colony Formation (Serratia marcescens): 14.0% | Percent Reduction in Colony Formation (Enterococcus faecalis; [11]): 0.0% | Percent Reduction in Colony Formation (Enterococcus faecalis; [12]): 0.0% | Percent Reduction in Colony Formation (Enterococcus faecalis; [13]): 0.0% | Percent Reduction in Colony Formation (Enterococcus faecalis; [14]): 0.0% | Percent Reduction in Colony Formation (Pseudomonas aeruginosa; [11]): 99.6% | Percent Reduction in Colony Formation (Pseudomonas aeruginosa; [12]): 100% | Percent Reduction in Colony Formation (Pseudomonas aeruginosa; [13]): 100% | Percent Reduction in Colony Formation (Pseudomonas aeruginosa; [14]): 100% | Percent Reduction in Colony Formation (Bacillus cereus; [11]): 11.8% | Percent Reduction in Colony Formation (Bacillus cereus; [12]): 50.7% | Percent Reduction in Colony Formation (Bacillus cereus; [13]): 42.5% | Percent Reduction in Colony Formation (Bacillus cereus; [14]): 77.4% | Percent Reduction in Colony Formation (Bacillus megaterium; [11]): 93.3% | Percent Reduction in Colony Formation (Bacillus megaterium; [12]): 91.2% | Percent Reduction in Colony Formation (Bacillus megaterium; [13]): 92.9% | Percent Reduction in Colony Formation (Bacillus megaterium; [14]): 99.3% | Percent Reduction in Colony Formation (Salmonella enteritidis): >99% | Percent Reduction in Colony Formation (Proteus mirabilis): 0.0% | Percent Reduction in Colony Formation (Bacillus subtilis): 97.4% | Percent Reduction in Colony Formation (Staphylococcus aureus; [11]): 0.0% | Percent Reduction in Colony Formation (Staphylococcus aureus; [12]): 0.0% | Percent Reduction in Colony Formation (Staphylococcus aureus; [13]): 0.0% | Percent Reduction in Colony Formation (Staphylococcus aureus; [14]): 0.0% | Percent Reduction in Colony Formation [3, 11]: 99.6% | Percent Reduction in Colony Formation [3, 12]: 99.9% | Percent Reduction in Colony Formation [3, 13]: 99.7% | Percent Reduction in Colony Formation [3, 14]: 100% | binding to bacteria (E. coli strain AB1157 [4]): binds specifically to bacteria in a non-reversible manner | lowest H1 concentration at which significant cytotoxicity was observed (E. coli strain AB1157 [1]): 0.24 µM | dependence of antibiotic activity on serum (E. coli strain AB1157 [1]; 0 to about 10% (v/v) human AB serum or fetal calf serum): independent of serum concentrations at concentrations at least as high as 10% (v/v) serum | incubation time sufficient to achieve maximal cytotoxic effect (E. coli strain AB1157 [1]; 1.9 micromolar H1, 37° C.): less than ten | temperature dependency of bactericidal effect (E. coli strain AB1157 [1]; 1.9 micromolar histone H1, 4° C., 30° C., 37° C.): significantly greater at 37 °C than at either 4 °C or 30 °C | E. coli cells killed (E. coli strain AB1157 [1]; histone H1 concentration less than 1 micromolar, twenty minutes in Sorensen buffer): more than 98% | toxic concentration [5]: more than 200 or 250 micrograms per milliliter | fraction of the cells which exhibited membrane damage (E. coli strain AB1157 [6]): dependent on the concentration of histone H1 | killing of penicillin-resistant cells compared with wild type cells [7]: killed penicillin-resistant cells approximately as efficiently as it killed wild type cells | concentrations that may induce death of animal cells (animal cells): 10 to 100 µM | survival [8]: less than 3% | fractional survival of cells (E. coli strain AB1157 [9]; histone H1 stored at 4° C. for twenty hours): about 1% | fractional survival of cells (E. coli strain AB1157 [9]; histone H1 stored at 37° C. for twenty hours): about 6% | fractional survival of cells (E. coli strain AB1157 [9]; histone H1 stored at −80° C. for twenty hours): about 0.1% | antibiotic activity after storage (E. coli strain AB1157 [9]; stored at −80° C. for more than thirty-six months): not significantly decreased | development of resistance of E. coli cells to the antibiotic activity (E. coli strain AB1157 [10]): can develop resistance | toxic concentration (bacterial cells; bacterial cells): less than 80 micrograms per milliliter | concentrations that induce death of bacterial cells (bacterial cells; relatively low concentrations, as described herein): 0.2 to 4 µM

B1: Trypsin: Protease used to digest histone H1; tested alone as control (protein, UniProt P00760 24-246, looked up)
Serine protease 1: IVGGYTCGANTVPYQVSLNSGYHFCGGSLINSQWVVSAAHCYKSGIQVRLGEDNINVVEGNEQFISASKSIVHPSYNSNTLNNDIMLIKLKSAASLNSRVASISLPTSCASAGTQCLISGWGNTKSSGTSYPDVLKCLKAPILSDSSCKSAYPGQITSNMFCAGYLEGGKDSCQGDSGGPVVCSGKLQGIVSWGSGCAQKNKPGVYTKVCNYVSWIKQTIASN
effect on survival of the bacteria (E. coli strain AB1157 [1]; trypsin alone): had no effect on the survival of the bacteria
